# From ChEMBL document CHEMBL4425194, “Synthesis and biological evaluation of novel imidazol-1-ylacetic acid derivatives as non-brain penetrant bombesin receptor subtype-3 (BRS-3) agonists” (Bioorg Med Chem Lett, 2016)
# The source made the active and inactive calls. No cut-off for these calls is given here.
# Tests used:
# [1] = biological target: T1, Bombesin receptor subtype-3 (Mus musculus, UniProt O54798); experiment: Agonist activity at mouse BRS3 expressed in CHOK1 cells measured after 1 hrs by IP-One HTRF assay; format: cell-based
# T1 sequence (O54798 whole entry): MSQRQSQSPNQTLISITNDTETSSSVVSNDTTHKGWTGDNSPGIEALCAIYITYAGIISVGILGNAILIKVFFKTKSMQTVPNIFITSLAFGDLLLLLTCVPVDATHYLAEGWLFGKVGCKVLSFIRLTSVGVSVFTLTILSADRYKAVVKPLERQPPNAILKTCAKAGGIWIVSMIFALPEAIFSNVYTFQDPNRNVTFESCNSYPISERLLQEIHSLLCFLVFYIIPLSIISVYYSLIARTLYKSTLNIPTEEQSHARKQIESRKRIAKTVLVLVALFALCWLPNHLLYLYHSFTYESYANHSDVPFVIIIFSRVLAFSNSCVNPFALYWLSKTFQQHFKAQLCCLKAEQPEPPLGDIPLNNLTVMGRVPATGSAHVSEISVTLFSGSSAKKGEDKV
# [2] = Drug uptake in mouse brain assessed as active compound level at 10 mg/kg, iv administered as infusion measured after 30 or 60 mins; format: ADME, organism-based; conditions: 1 h
# [3] = biological target: T2, Bombesin receptor subtype-3 (Homo sapiens, UniProt P32247); experiment: Agonist activity at human BRS3 expressed in CHOK1 cells measured after 1 hrs by IP-One HTRF assay; format: cell-based
# T2 sequence (P32247 whole entry): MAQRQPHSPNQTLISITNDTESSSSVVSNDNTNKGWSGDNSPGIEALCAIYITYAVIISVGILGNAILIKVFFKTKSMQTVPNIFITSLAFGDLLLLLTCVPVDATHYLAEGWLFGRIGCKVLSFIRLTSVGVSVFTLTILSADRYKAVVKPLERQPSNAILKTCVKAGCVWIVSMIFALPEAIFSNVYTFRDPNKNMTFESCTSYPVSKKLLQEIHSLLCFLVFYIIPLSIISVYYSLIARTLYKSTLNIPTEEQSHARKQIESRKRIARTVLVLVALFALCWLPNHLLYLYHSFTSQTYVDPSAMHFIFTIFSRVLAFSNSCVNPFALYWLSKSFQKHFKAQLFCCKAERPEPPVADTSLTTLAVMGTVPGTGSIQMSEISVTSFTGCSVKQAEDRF
# [4] = Drug uptake in mouse brain assessed as active compound level at 3 mg/kg, iv administered as infusion measured after 30 or 60 mins; format: ADME, organism-based; conditions: 1 h
# [5] = Drug uptake in mouse plasma assessed as ratio of active compound to metabolite at 3 mg/kg, iv administered as infusion measured after 30 or 60 mins; format: ADME, organism-based; conditions: in vivo, 1 h, pooled result: one value given for 2 cell lines, strains, targets or settings
# [6] = Plasma concentration in halothane anesthetized dog at 3 mg/kg/ml, iv measured after 30 mins; format: ADME, organism-based, Canis lupus familiaris
# [7] = Cardiotoxicity in halothane anesthetized dog assessed as effect on blood pressure at 3 mg/kg/ml, iv measured after 30 mins; format: toxicity, organism-based, Canis lupus familiaris; conditions: in vivo, 0.5 h
# [8] = species on record: Mus musculus; experiment: Antiobesity activity in BRS3-deficient C57BL/6N mouse assessed as anorectic effect measured after 1 hr; format: functional, organism-based
# [9] = Solubility of the compound in JP1 at pH 1.2; format: physicochemical; conditions: JP1, pH 1.2
# [10] = Cmax in halothane anesthetized dog not showing increase in heart rate at 3 mg/kg/ml, iv measured after 30 mins; format: ADME, organism-based, Canis lupus familiaris; set-up: dose 3 mg/kg, route intravenous; conditions: in vivo
# [11] = Octanol-water distribution coefficient, log D of the compound in PBS buffer at pH 7.4; format: physicochemical
# [12] = tested on: Mus musculus; experiment: Antiobesity activity in C57BL/6N mouse assessed as reduction in food intake at 30 mg/kg, po measured after 1 hr; format: functional; set-up: scale not given: the % may be the effect or the level left
# [13] = Cmax in halothane anesthetized dog showing 100.9% increase in heart rate at 3 mg/kg/ml, iv measured after 30 mins; format: ADME, organism-based, Canis lupus familiaris; set-up: dose 3 mg/kg, route intravenous; conditions: in vivo
# [14] = Plasma concentration in halothane anesthetized dog at 3 mg/kg/ml, iv measured after 60 mins; format: ADME, organism-based, Canis lupus familiaris
# [15] = Fraction unbound in mouse plasma; format: ADME, cell-free
# [16] = Solubility of the compound in JP2 at pH 6.8; format: physicochemical; conditions: JP2, pH 6.8
# [17] = tested on: Mus musculus; experiment: Antiobesity activity in po dosed C57BL/6N mouse assessed as anorectic effect measured after 1 hr; format: functional, organism-based
# [18] = Drug uptake in mouse brain assessed as metabolite level at 3 mg/kg, iv administered as infusion measured after 30 or 60 mins; format: ADME, organism-based; conditions: 1 h
# [19] = Drug uptake in mouse brain assessed as metabolite level at 10 mg/kg, iv administered as infusion measured after 30 or 60 mins; format: ADME, organism-based; conditions: 1 h
Structure (SMILES),EC50 [1],EC50 [3],also measured
COC(=O)c1c(F)cccc1-c1ccc(CCc2ncc(CC(C)(C)C)n2CCC(=O)O)cc1,0.003 µM,0.001 µM,Kp [2]: 0.02; Kp [4]: 0.02; Ratio [5]: 1.3
COC(=O)c1c(F)cccc1-c1ccc(CCc2ncc(CC(C)(C)C)n2Cc2ccc(C(=O)O)cc2)cc1,0.005 µM,0.003 µM,–
CC(C)(C)Cc1cnc(CCc2ccc(-c3cccc(F)c3C(=O)O)cc2)n1CCNS(C)(=O)=O,0.004 µM,0.002 µM,–
CC(C)(C)Cc1cnc(CCc2ccc(-c3cccc(F)c3C(=O)O)cc2)n1CCOc1cccc(O)c1,0.0008 µM,0.0009 µM,–
COC(=O)c1c(F)cccc1-c1ccc(CCc2ncc(CC(C)(C)C)n2CC(=O)O)cc1,0.044 µM,0.039 µM,concentration at 0.5 h [6]: 28.2 µM; Activity [7]: Non-Toxic; Activity [8]: inactive; solubility [9]: 730 µg/mL; Cmax [10]: 44.3 µM; logD [11]: 2; Activity [12]: 20%; Cmax [13]: 16.8 µM; concentration at 1 h [14]: 1.14 µM; fraction unbound [15]: 0.0167; Ratio [5]: 1.31; solubility [16]: 370 µg/mL; Activity [17]: Dose-dependent effect
COC(=O)c1ccccc1-c1ccc(CCc2ncc(CC(C)(C)C)[nH]2)cc1,0.498 µM,0.644 µM,–
CC(C)(C)Cc1cnc(CCc2ccc(-c3cccc(F)c3C(=O)O)cc2)n1CCC(=O)O,0.061 µM,0.011 µM,–
COC(=O)C(C)(C)Oc1ccc(CCc2ncc(CC(C)(C)C)[nH]2)cc1,0.621 µM,> 10 µM,–
CC(C)(C)Cc1cnc(CCc2ccc(-c3ccccc3C(=O)O)cc2)n1CC(=O)O,1.27 µM,0.897 µM,–
COC(=O)c1ccccc1-c1ccc(CCc2ncc(CC(C)(C)C)n2CC(=O)O)cc1,0.694 µM,0.968 µM,–
CC(C)(C)Cc1cnc(CCc2ccc(-c3cccc(F)c3C(=O)O)cc2)n1Cc1ccc(C(=O)O)cc1,0.013 µM,0.012 µM,–
CC(C)(C)Cc1cnc(CCc2ccc(-c3cccc(F)c3C(=O)O)cc2)n1CCO,0.002 µM,0.003 µM,–
CCC(C)(C)Cc1cnc(CCc2ccc(-c3ccccn3)cc2)n1CC(=O)O,0.026 µM,0.042 µM,–
COC(=O)c1c(F)cccc1-c1ccc(CCc2ncc(CC(C)(C)C)n2CCOc2cccc(O)c2)cc1,0.025 µM,0.013 µM,Kp [2]: 0.05; Kp [18]: 0.31; Kp [4]: 0.05; Ratio [5]: 2.49; Kp [19]: 0.31
COC(=O)C(C)(C)c1ccc(CCc2ncc(CC(C)(C)C)[nH]2)cc1,9.91 µM,2.23 µM,–
CCC(C)(C)Cc1cn(CC(=O)O)c(CCc2ccc(-c3ccccn3)cc2)n1,1.91 µM,4.08 µM,–
COC(=O)c1ccccc1-c1ccc(CCCc2ncc(CC(C)(C)C)[nH]2)cc1,> 10 µM,> 10 µM,–
COC(=O)c1c(F)cccc1-c1ccc(CCc2ncc(CC(C)(C)C)n2CCO)cc1,0.024 µM,0.021 µM,–
CC(C)(C)Cc1cnc(CCc2ccc(-c3cccc(F)c3C(=O)O)cc2)n1CC(=O)O,0.14 µM,0.069 µM,concentration at 0.5 h [6]: 20.1 µM; solubility [9]: > 870 µg/mL; Cmax [10]: 38.1 µM; logD [11]: < -1.8; Cmax [13]: 4.2 µM; concentration at 1 h [14]: 1.09 µM; fraction unbound [15]: 0.181; solubility [16]: > 870 µg/mL
COC(=O)c1c(F)cccc1-c1ccc(CCc2ncc(CC(C)(C)C)n2CCNS(C)(=O)=O)cc1,0.007 µM,0.011 µM,Kp [2]: 0.02; Kp [18]: 0.02; Kp [4]: 0.02; Ratio [5]: 2.3; Kp [19]: 0.02
